Results reported in patent publication US20060079677A1, “Novel tricyclic azepine derivatives, method for production thereof and pharmaceutical compositions comprising the same” (priority 2003, published 2006).

Columns and labels:
[1] = tested on: L1210 cells; assay: Action on the cell cycle; format: cell-based, murine; settings: 25 nM, after 21 hours (untreated cells: 20%)
Description: L1210 cells are incubated for 21 hours at 37° C. in the presence of various concentrations of test compounds. The cells are then fixed using 70% ethanol (v/v), washed twice in PBS and incubated for 30 minutes at 20° C. in PBS that contains 100 μg/ml of RNAse and 50 μg/ml of propidium iodide. The results are expressed as a percentage of the cells that have accumulated in the G2+M phases after 21 hours compared with the control.

[2] = tested on: KB-A1 resistant line (multi-drug resistance induced using adriamycin); assay: In vitro cytotoxicity, Microculture Tetrazolium Assay; format: cell-based, human
Description: (§1) Five cell lines were used: • 1 murine leukaemia, L1210, • 1 non-small-cell human lung carcinoma, A549, • 1 human epidermoid carcinoma, KB-3-1, and the corresponding resistant line, KB-A1, whose multi-drug resistance was induced using adriamycin (ADR), • 1 human colon carcinoma, HT29.
(§2) The cells are cultured in RPMI 1640 complete culture medium comprising 10% foetal calf serum, 2 mM glutamine, 50 units/ml of penicillin, 50 μg/ml of streptomycin and 10 mM Hepes, pH 7.4. The cells are distributed on microplates and are exposed to the cytotoxic compounds. The cells are then incubated for 2 days (L1210) or 4 days (A549, KB-A1, KB-3-1, HT29). The number of viable cells is then quantified by a colorimetric assay, the Microculture Tetrazolium Assay (Cancer Res. 1987, 47, 936-942).
(§3) The results are expressed as IC50, the concentration of cytotoxic agent that inhibits the proliferation of the treated cells by 50%.

[3] = tested on: A549 non-small-cell human lung carcinoma; assay: as above; format: cell-based; settings: 96 h, A549, incubated 4 days, inhibition of proliferation by 50%
Description: as §1, §2, §3

[4] = tested on: L1210 murine leukaemia; assay: as above; format: cell-based; settings: Mus musculus, 48 h; L1210, incubated 2 days, inhibition of proliferation by 50%
Description: as §1, §2, §3

[5] = tested on: KB-3-1 human epidermoid carcinoma; assay: as above; format: cell-based; settings: 96 h, KB-3-1, incubated 4 days, inhibition of proliferation by 50%
Description: as §1, §2, §3

[6] = tested on: HT29 human colon carcinoma; assay: as above; format: cell-based; settings: HT-29, 96 h, HT29, incubated 4 days, inhibition of proliferation by 50%
Description: as §1, §2, §3

COc1ccc(CCN2C=CC=C3C2=Nc2ccccc2OS3(=O)=O)cc1 [Example 42, 1-[2-(4-Methoxyphenyl)ethyl]-1H-pyrido[3,2-c][1,2,5]benzoxathiazepine 5,5-dioxide]
percentage of the cells accumulated in the G2+M phases [1]: 80-90%
IC50 ([2]; Homo sapiens, 96 h, KB-A1, incubated 4 days, inhibition of proliferation by 50%): 13.3 nM
recognition by P-glycoprotein (resistant line KB-A1 versus sensitive line KB-3-1) ([2]; KB-A1 as sensitive as KB-3-1): not recognised by P-glycoprotein
IC50 [3]: 11.3 nM
IC50 [4]: 8.2 nM
IC50 [5]: 15.6 nM
IC50 [6]: 9.8 nM
